In patent US12630829B2, “Gene encoding cytochrome P450 and use thereof” (KUMIAI CHEMICAL INDUSTRY CO., LTD., priority 2020, dated 2026):
“Also recorded” adds a separate entry of the source.

Legend:
[1] = system: AK454412 (wheat-derived P450) co-expressed with TaCPR; assay: In vitro metabolism test using co-expression crude enzyme of AK454412 and TaCPR (LC/MS); type: in vitro ADME; settings: 10 μM fenquinotrione, 1 mg crude enzyme, 1 mM β-NADPH, 30° C., 1 hour
Experimental: A single colony of the recombinant E. coli into which each of the above-described two expression constructs had been introduced was inoculated in 3 ml of LB liquid medium, followed by culturing at 37° C. and 200 rpm overnight. 2.5 mL of the resultant culture fluid was added to 250 mL of TB medium (containing 100 ppm carbenicillin and 50 ppm chloramphenicol) held in a 1 L Erlenmeyer flask, followed by culturing at 37° C. and 200 rpm until an OD600 of about 0.5 to 0.6 was obtained. After the resultant flask was cooled with ice, IPTG and aminolaevulinic acid were added thereto to final concentrations of 1 mM and 0.5 mM, respectively, followed by culturing at 20° C. and 110 rpm. 22 hours after the IPTG induction, the resultant culture fluid was centrifuged (4° C., 15,000 rpm, 1 min). A bacterial cell in the obtained 500 mL of culture fluid was suspended in 35 mL of P450 Buffer [50 mM potassium phosphate buffer (pH 7.3), 20% glycerol, 1 mM EDTA, and 1 mM DTT] to be sonicated, followed by centrifugation at 4° C. and at 6,000×g for 10 minutes. The supernatant was centrifuged at 4° C. and at 100,000×g for 1 hour, and a solution obtained by adding P450 Buffer by 1 mL to the obtained precipitate and homogenizing the resultant with a Teflon homogenizer was used as a co-expression crude enzyme solution for AK454412 and TaCPR. […]

[2] = system: wild type Arabidopsis thaliana; assay: Fenquinotrione sensitivity test on MS solid medium, wild type; type: in vivo; settings: 10 nM in MS solid medium, 22° C., about 10 days, evaluated subjectively
Experimental: With a sensitivity difference from wild type Arabidopsis thaliana used as an index, it was verified whether or not the created transformant had resistance to fenquinotrione. In MS solid media in each of which fenquinotrione was added to a final concentration of 10,000, 1,000, 100, 10, or 1 nM, or 0.1% of DMSO was added as an untreated plot, sterilized seeds of Arabidopsis thaliana having AK454412 forced expression and wild type Arabidopsis thaliana were each seeded, and grown at 22° C. for about 10 days. The sensitivity to this drug was evaluated subjectively in accordance with the degree of chlorosis of acting symptom. The results are illustrated in FIG. 9. FIG. 9(A) illustrates results obtained in using the wild type Arabidopsis thaliana, and FIG. 9(B) illustrates results obtained in using the Arabidopsis thaliana having AK454412 forced expression.

[3] = system: KJ541960 (wheat-derived P450) co-expressed with TaCPR; assay: In vitro drug metabolism test of KJ541960 protein against fenquinotrione; type: in vitro ADME; settings: test method and conditions of Example 1; KJ541960 reaction plot
Experimental: It was verified by in vitro metabolism test whether or not a novel wheat-derived P450 of AK454412 is involved in herbicide metabolism. As a compound having high safety against wheat, fenquinotrione was used. […] A solution after completing the enzymatic reaction was centrifuged at 15,000 rpm for 1 minute, and the obtained supernatant was filtered through a 0.45 μm filter and then tested by LC/MS. LC/MS conditions were as follows:
Therefore, synthesis of an artificial gene of the KJ541960 gene was requested of Eurofins Genomics K.K. Here, NdeI and EcoRI sites were respectively added to the 5′ and 3′ terminals of the CDS sequence of the gene. A DNA fragment of the KJ541960 gene was cleaved through NdeI/EcoRI treatment from the synthesized pEX-A2J2-KJ541960 plasmid, and was linked to pET-22b(+) vector, similarly having been subjected to NdeI/EcoRI treatment, with Ligation-Convenience Kit, and thus pET-22b-KJ541960 was produced (FIG. 13). […]
It is noted that the KJ541960 gene, synthesized as the artificial gene, was set to encode an amino acid sequence, in which a membrane anchoring region of the 35 N-terminal amino acid residues was removed, and the 6β sequence (MAKKTSS) was added as the same conditions as in the AK454412 gene. […] Besides, the intensity of the peak of the detected demethylated product was substantially the same in both the reaction plots. […]

## COc1ccc(-n2c(=O)c(C(=O)C3C(=O)CCCC3=O)nc3c(Cl)cccc32)cc1 [fenquinotrione]
[1]
  metabolic degradation of fenquinotrione (production of the demethylated product, LC/MS): metabolically degrades fenquinotrione to the demethylated product; also recorded: a parent peak of fenquinotrione was reduced, and a peak of the demethylated product appeared
[2]
  wild type Arabidopsis thaliana having chlorosis: ≥ 90%
[3]
  metabolism of fenquinotrione (production of demethylated product as index): a parent peak of fenquinotrione was reduced, and a peak of the demethylated product appeared
